How the values were obtained:
[1] = test system: 4T1 (mouse breast cancer); experiment: MTS cell viability assay, 4T1 cells; format: cell-based; conditions: for efficacy in killing cancer cells: 4T1, concentration 6× lower than the ED50 concentrations, FIG. 3a; for EC50: Mus musculus, 4T1, MTS, 48 hours, individual drug, read-out: ED50 in 4T1
Protocol: (§1) The 50% effective dose (or ED50) for 2-DG, MTX, and WGN (individually) against the cancer cell lines 4T1 (mouse breast cancer), MCF-7 (human breast cancer), THP-1 (human myelomonocytic cancer), and B16-F10 (mouse melanoma) was determined (Table 1). The cell lines were specifically chosen for their extremely aggressive nature. For example, the cell lines have evolved multiple mechanisms of resistance to cell death and are highly metastatic (e.g., equivalent to a stage 4 cancer model). In this assay, a Determination of the ED50 using the MTS cell viability assay
(§2) Analysis of the effects of MTX-2DG-WGN combination on cell growth was performed with an MTS kit (CellTiter 96® AQueous One Solution Cell Proliferation Assay Kit, Promega, Madison, WI, USA) according to the manufacturer's instruction. 4-T1, MCF-7, B16-F10, and THP-1 cells were seeded into 96-well plates at a density of 10×10^3 cells per well with three replicates. The cells were treated as indicated (MTX, 2DG, and WGN were added initially at concentrations of 100 μM, 50 mM, and 200 μM, respectively, followed by serial two-fold dilutions) and incubated for 48 hours at 5% CO2 at 37° C. After 48 h, 20 μL of CellTiter 96® AQueous One Solution MTS (5 mg/mL) (Promega—Madison, WI, USA) was added to each well and incubated at 5% CO2 at 37° C. for an additional 4 hours. Absorbance readings were taken in an Epoch microplate reader at 490 nm. Computed data was compared to untreated and normalized cells. Cells that were not administered any treatment were considered the control group. Cell viability was calculated by the following formula: Cell viability (%)=(average OD in treated group/average OD in control group)×100%. A dose-activity curve with the concentration spectrum was prepared.
(§3) The EC50 was extrapolated from the dose-response graph. The drug concentration that caused 50% maximum effect with regards to cytotoxicity was determined by plotting triplicate data points over a concentration range and calculating values using regression analysis of GraphPad PRISM v8 program.
(§4) MTX, 2-DG, and WGN were tested alone and in combination. […] The combination of all 3 compounds was also tested, along with a negative control (untreated). The results are shown for 4T1 mouse breast cancer cells (FIG. 3a) and MCF7 human breast cancer cells (FIG. 3b).
(§5) The testing protocol was the same as that described for the ED50 noted above.

[2] = test system: MCF-7 (human breast cancer); experiment: MTS cell viability assay, MCF-7 cells; format: cell-based; conditions: for EC50: Homo sapiens, MCF7, MTS, 48 hours, individual drug, read-out: ED50 in MCF-7; for efficacy in killing cancer cells: MCF7, concentration 6× lower than the ED50 concentrations, FIG. 3b
Protocol: as §1, §2, §3, §4, §5

[3] = test system: THP-1 (human myelomonocytic cancer); experiment: MTS cell viability assay, THP-1 cells; format: cell-based; conditions: 48 hours, individual drug, read-out: ED50 in THP-1
Protocol: as §1
(§6) Analysis of the effects of MTX-2DG-WGN combination on cell growth was performed with an MTS kit (CellTiter 96® AQueous One Solution Cell Proliferation Assay Kit, Promega, Madison, WI, USA) according to the manufacturer's instruction. […] Absorbance readings were taken in an Epoch microplate reader at 490 nm. […] Cell viability was calculated by the following formula: Cell viability (%)=(average OD in treated group/average OD in control group)×100%. […]
(§7) The EC50 was extrapolated from the dose-response graph. The drug concentration that caused 50% maximum effect with regards to cytotoxicity was determined by plotting triplicate data points over a concentration range and calculating values using regression analysis of GraphPad PRISM v8 program. […]

[4] = test system: B16-F10 (mouse melanoma); experiment: MTS cell viability assay, B16-F10 cells; format: cell-based; conditions: 48 hours, individual drug, read-out: ED50 in B16-F10
Protocol: as §1, §6, §7

[5] = test system: dihydrofolate reductase (DHFR); conditions: cited from earlier work
[6] = 2-DG used alone; cited from earlier work
[7] = 2-DG administration, patients; cited from earlier work
[8] = test system: 4T1 mouse breast cancer cells 3D cancerspheres; experiment: 3D cancersphere viability, 4T1; format: cell-based; conditions: 4T1 cancerspheres, 48 h treatment; doxorubicin 25 μM, FIGS. 7a, 7b
Protocol: (§8) A new model for tumor growth in vitro has been established as 3D cultures known as cancerspheres. To evaluate the clinical translatability and predictivity of the novel combinatorial therapy in vivo, 3D cancerspheres suspended in media containing extracellular matrix proteins (ECM) were treated with the combination of MTX, 2-DG, and WGN.
(§9) Mammary tumorspheres were grown using Matrigel® Extracellular Matrix Basement Membrane (Corning, USA). […]
(§10) After 8 days of culture and 48 h treatment, tumorspheres of roughly 50 cells or more were selected for qualitative analysis. […] After 5 min, tumorspheres were analyzed microscopically. […] Dead (non-viable) spheroids were characterized as stained and displaying no luminescence.
(§11) On the 8th day of culture, media from MCF-7 and 4-T1 mammary tumorsphere cultures was changed and cells were then treated with either our novel combinatorial therapy or 25 μM doxorubicin. […] Absorbance readings were taken in an Epoch microplate reader at 490 nm. […] Cell viability was calculated by the following formula: Cell viability (%)=(average OD in treated group/average OD in control group)×100%.

[9] = test system: MCF-7 human breast cancer cells 3D cancerspheres; experiment: 3D cancersphere viability, MCF-7; format: cell-based; conditions: MCF-7 cancerspheres, 48 h treatment; doxorubicin 25 μM, FIGS. 7c, 7d
Protocol: as §8, §9, §10, §11

SMILES | efficacy in killing cancer cells [1] | EC50 [1] [µM] | EC50 [2] [µM] | efficacy in killing cancer cells [2] | EC50 [3] [µM] | EC50 [4] [µM] | affinity for DHFR relative to folate [5] | concentration needed to be effective when used alone [6] [mM] | doses at which adverse effects occur [7] | efficacy against 3D cancerspheres [8] | efficacy against 3D cancerspheres [9]
COc1c(O)cc(O)c2c(=O)cc(-c3ccccc3)oc12 [WGN, Wogonin] | no effect whatsoever | 85 | 20.2 | no effect whatsoever | 83 | 76 | – | – | – | – | –
CN(Cc1cnc2nc(N)nc(N)c2n1)c1ccc(C(=O)N[C@@H](CCC(=O)O)C(=O)O)cc1 [MTG, Methotrexate] | no effect whatsoever | 0.049 | 0.049 | no effect whatsoever | 1.82 | 0.019 | about 1000 fold | – | – | – | –
OCC1O[C@H](O)C[C@@H](O)[C@@H]1O (mixture of isomers) [2-DG, 2-deoxyglucose] | no effect whatsoever | – | – | no effect whatsoever | – | – | – | > 5 | above 63 mg/kg | – | –
COc1cccc2c1C(=O)c1c(O)c3c(c(O)c1C2=O)C[C@@](O)(C(=O)CO)C[C@@H]3O[C@H]1C[C@H](N)[C@H](O)[C@H](C)O1 [doxorubicin] | – | – | – | – | – | – | – | – | – | resistant | resistant
